Source: PubChem BioAssay AID2060615 (Molecular Pharmacology Branch, DTP, NCI, 2025)
pIC50: −log10 of the molar value.

Test system: 496974-208-R-J2-PDC complex spheroids, growth % test/control
Assay: Anticancer human tumor 496974-208-R-J2-PDC patient-derived pancreatic carcinoma cell line growth inhibition [CLK]
Conditions: for pIC50: curve of first compound; for viability, T/C: stronger effect = lower value
Method in brief: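 Multi-cell-type spheroids combined patient-derived tumor cells with HUVEC endothelial cells and human mesenchymal stem cells. Paired agents were dosed in half-log steps down from about clinical Cmax, or from 10 microM where Cmax was unknown.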

[1] = second compound 0.0316 µM, first compound 0.0316 µM
[2] = second compound 0.0316 µM, first compound 0.1 µM
[3] = second compound 0.0316 µM, first compound 0.316 µM
[4] = second compound 0.0316 µM, first compound 1 µM
[5] = second compound 0.0316 µM, first compound 3.16 µM
[6] = second compound 0.0316 µM, first compound 10 µM
[7] = second compound 0.1 µM, first compound 0.0316 µM
[8] = second compound 0.1 µM, first compound 0.1 µM
[9] = second compound 0.1 µM, first compound 0.316 µM
[10] = second compound 0.1 µM, first compound 1 µM
[11] = second compound 0.1 µM, first compound 3.16 µM
[12] = second compound 0.1 µM, first compound 10 µM
[13] = second compound 0.316 µM, first compound 0.0316 µM
[14] = second compound 0.316 µM, first compound 0.1 µM
[15] = second compound 0.316 µM, first compound 0.316 µM
[16] = second compound 0.316 µM, first compound 1 µM
[17] = second compound 0.316 µM, first compound 3.16 µM
[18] = second compound 0.316 µM, first compound 10 µM
[19] = second compound 1 µM, first compound 0.0316 µM
[20] = second compound 1 µM, first compound 0.1 µM
[21] = second compound 1 µM, first compound 0.316 µM
[22] = second compound 1 µM, first compound 1 µM
[23] = second compound 1 µM, first compound 3.16 µM
[24] = second compound 1 µM, first compound 10 µM
[25] = second compound 3.16 µM, first compound 0.0316 µM
[26] = second compound 3.16 µM, first compound 0.1 µM
[27] = second compound 3.16 µM, first compound 0.316 µM
[28] = second compound 3.16 µM, first compound 1 µM
[29] = second compound 3.16 µM, first compound 3.16 µM
[30] = second compound 3.16 µM, first compound 10 µM
[31] = second compound 10 µM, first compound 0.0316 µM
[32] = second compound 10 µM, first compound 0.1 µM
[33] = second compound 10 µM, first compound 0.316 µM
[34] = second compound 10 µM, first compound 1 µM
[35] = second compound 10 µM, first compound 3.16 µM
[36] = second compound 10 µM, first compound 10 µM
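Also: spheroids exposed to the drugs for 7 days before readout.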
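For viability, T/C in this document: 100% = DMSO vehicle control wells.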

`CC1(C)CCC(CN2CCN(c3ccc(C(=O)NS(=O)(=O)c4ccc(NCC5CCOCC5)c([N+](=O)[O-])c4)c(Oc4cnc5[nH]ccc5c4)c3)CC2)=C(c2ccc(Cl)cc2)C1` + CN1CCN(c2cc(C(=O)Nc3cc4cc(-c5cnn(C)c5)ccc4cn3)ccn2)CC1 showed a pIC50 (second compound 0.0316 µM) of under 5.00, a pIC50 (second compound 0.1 µM) of 5.09 and a pIC50 (second compound 0.316 µM) of over 7.50. For the same molecule, the pIC50 (second compound 1 µM) was over 7.50, the pIC50 (second compound 3.16 µM) was over 7.50 and the pIC50 (second compound 10 µM) was over 7.50. It also gave a viability, T/C [1] of 93.7%, a viability, T/C [2] of 95.9% and a viability, T/C [3] of 101%. It also gave a viability, T/C [4] of 104%, a viability, T/C [5] of 92.1% and a viability, T/C [6] of 50.8%. The viability, T/C [7] was 80.3%, the viability, T/C [8] was 77.9% and the viability, T/C [9] was 86.7%. It also gave a viability, T/C [10] of 87.7%, a viability, T/C [11] of 84.9% and a viability, T/C [12] of 42.3%. It also gave a viability, T/C [13] of 5.92%, a viability, T/C [14] of 5.59% and a viability, T/C [15] of 5.97%. It also gave a viability, T/C [16] of 6.42%, a viability, T/C [17] of 3.9% and a viability, T/C [18] of 5.66%. For the same molecule, the viability, T/C [19] was 0.75%, the viability, T/C [20] was 0.68% and the viability, T/C [21] was 0.5%. For the same molecule, the viability, T/C [22] was 0.5%, the viability, T/C [23] was 0.63% and the viability, T/C [24] was 2.1%. The viability, T/C [25] was 0.5%, the viability, T/C [26] was 0.74% and the viability, T/C [27] was 0.43%. For the same molecule, the viability, T/C [28] was 0.7%, the viability, T/C [29] was 0.52% and the viability, T/C [30] was 3.57%. The viability, T/C [31] was 0.25%, the viability, T/C [32] was 1.16% and the viability, T/C [33] was 0.37%. For the same molecule, the viability, T/C [34] was 0.34%, the viability, T/C [35] was 0.32% and the viability, T/C [36] was 2.82%.

`CC1COCCN1c1cc(C2(S(C)(=N)=O)CC2)nc(-c2ccnc3[nH]ccc23)n1` (stereo not drawn) + CN1CCN(c2cc(C(=O)Nc3cc4cc(-c5cnn(C)c5)ccc4cn3)ccn2)CC1 gave a pIC50 (second compound 0.0316 µM) of 5.42, a pIC50 (second compound 0.1 µM) of 5.71 and a pIC50 (second compound 0.316 µM) of over 7.50. The pIC50 (second compound 1 µM) was over 7.50, the pIC50 (second compound 3.16 µM) was over 7.50 and the pIC50 (second compound 10 µM) was over 7.50. It also gave a viability, T/C [1] of 107%, a viability, T/C [2] of 99.8% and a viability, T/C [3] of 102%. The viability, T/C [4] was 82.8%, the viability, T/C [5] was 53.3% and the viability, T/C [6] was 34.5%. The viability, T/C [7] was 94.5%, the viability, T/C [8] was 83.4% and the viability, T/C [9] was 73.3%. It also gave a viability, T/C [10] of 70.1%, a viability, T/C [11] of 35.6% and a viability, T/C [12] of 22.4%. For the same molecule, the viability, T/C [13] was 7.43%, the viability, T/C [14] was 5.54% and the viability, T/C [15] was 5.89%. It also gave a viability, T/C [16] of 5.38%, a viability, T/C [17] of 4.22% and a viability, T/C [18] of 5.13%. It also gave a viability, T/C [19] of 0.53%, a viability, T/C [20] of 0.67% and a viability, T/C [21] of 2.64%. It also gave a viability, T/C [22] of 0.45%, a viability, T/C [23] of 0.65% and a viability, T/C [24] of 1.19%. For the same molecule, the viability, T/C [25] was 0.65%, the viability, T/C [26] was 0.51% and the viability, T/C [27] was 1.73%. The viability, T/C [28] was 0.46%, the viability, T/C [29] was 0.61% and the viability, T/C [30] was 0.43%. For the same molecule, the viability, T/C [31] was 0.36%, the viability, T/C [32] was 0.42% and the viability, T/C [33] was 1.59%. The viability, T/C [34] was 0.41%, the viability, T/C [35] was 1.27% and the viability, T/C [36] was 1.47%.

With `NC(=O)C(=Cn1cnc(-c2cc(C(F)(F)F)cc(C(F)(F)F)c2)n1)c1cncnc1` + CN1CCN(c2cc(C(=O)Nc3cc4cc(-c5cnn(C)c5)ccc4cn3)ccn2)CC1 the pIC50 (second compound 0.0316 µM) was 7.09, the pIC50 (second compound 0.1 µM) was 7.38 and the pIC50 (second compound 0.316 µM) was over 8.02. For the same molecule, the pIC50 (second compound 1 µM) was over 8.02, the pIC50 (second compound 3.16 µM) was over 8.02 and the pIC50 (second compound 10 µM) was over 8.02. For the same molecule, the viability, T/C (second compound 0.0316 µM, first compound 0.00949 µM) was 90.6%, the viability, T/C (second compound 0.0316 µM, first compound 0.03 µM) was 67.2% and the viability, T/C (second compound 0.0316 µM, first compound 0.0949 µM) was 52.1%. The viability, T/C (second compound 0.0316 µM, first compound 0.3 µM) was 21.3%, the viability, T/C (second compound 0.0316 µM, first compound 0.949 µM) was 16.9% and the viability, T/C (second compound 0.0316 µM, first compound 3 µM) was 11.8%. For the same molecule, the viability, T/C (second compound 0.1 µM, first compound 0.00949 µM) was 61.6%, the viability, T/C (second compound 0.1 µM, first compound 0.03 µM) was 56.5% and the viability, T/C (second compound 0.1 µM, first compound 0.0949 µM) was 35.2%. For the same molecule, the viability, T/C (second compound 0.1 µM, first compound 0.3 µM) was 12.4%, the viability, T/C (second compound 0.1 µM, first compound 0.949 µM) was 7.44% and the viability, T/C (second compound 0.1 µM, first compound 3 µM) was 2.92%. For the same molecule, the viability, T/C (second compound 0.316 µM, first compound 0.00949 µM) was 2.46%, the viability, T/C (second compound 0.316 µM, first compound 0.03 µM) was 1.91% and the viability, T/C (second compound 0.316 µM, first compound 0.0949 µM) was 3.26%. For the same molecule, the viability, T/C (second compound 0.316 µM, first compound 0.3 µM) was 0.41%, the viability, T/C (second compound 0.316 µM, first compound 0.949 µM) was 0.31% and the viability, T/C (second compound 0.316 µM, first compound 3 µM) was 0.19%. The viability, T/C (second compound 1 µM, first compound 0.00949 µM) was 0.39%, the viability, T/C (second compound 1 µM, first compound 0.03 µM) was 0.4% and the viability, T/C (second compound 1 µM, first compound 0.0949 µM) was 0.64%. For the same molecule, the viability, T/C (second compound 1 µM, first compound 0.3 µM) was 0.44%, the viability, T/C (second compound 1 µM, first compound 0.949 µM) was 2.17% and the viability, T/C (second compound 1 µM, first compound 3 µM) was 0.11%. For the same molecule, the viability, T/C (second compound 3.16 µM, first compound 0.00949 µM) was 0.34%, the viability, T/C (second compound 3.16 µM, first compound 0.03 µM) was 0.4% and the viability, T/C (second compound 3.16 µM, first compound 0.0949 µM) was 0.41%. For the same molecule, the viability, T/C (second compound 3.16 µM, first compound 0.3 µM) was 0.37%, the viability, T/C (second compound 3.16 µM, first compound 0.949 µM) was 0.26% and the viability, T/C (second compound 3.16 µM, first compound 3 µM) was 0.13%. It also gave a viability, T/C (second compound 10 µM, first compound 0.00949 µM) of 0.25%, a viability, T/C (second compound 10 µM, first compound 0.03 µM) of 0.23% and a viability, T/C (second compound 10 µM, first compound 0.0949 µM) of 1.86%. For the same molecule, the viability, T/C (second compound 10 µM, first compound 0.3 µM) was 0.31%, the viability, T/C (second compound 10 µM, first compound 0.949 µM) was 0.24% and the viability, T/C (second compound 10 µM, first compound 3 µM) was 0.69%.

Work on `Nc1ccccc1NC(=O)c1ccc(CNC(=O)OCc2cccnc2)cc1` + CN1CCN(c2cc(C(=O)Nc3cc4cc(-c5cnn(C)c5)ccc4cn3)ccn2)CC1 yielded a pIC50 (second compound 0.0316 µM) of 5.37, a pIC50 (second compound 0.1 µM) of 5.36 and a pIC50 (second compound 0.316 µM) of over 7.50. The pIC50 (second compound 1 µM) was over 7.50, the pIC50 (second compound 3.16 µM) was over 7.50 and the pIC50 (second compound 10 µM) was over 7.50. For the same molecule, the viability, T/C [1] was 105%, the viability, T/C [2] was 101% and the viability, T/C [3] was 94.3%. The viability, T/C [4] was 81.4%, the viability, T/C [5] was 73.2% and the viability, T/C [6] was 0.89%. The viability, T/C [7] was 77.5%, the viability, T/C [8] was 78.9% and the viability, T/C [9] was 80.3%. The viability, T/C [10] was 69.2%, the viability, T/C [11] was 69.4% and the viability, T/C [12] was 0.6%. It also gave a viability, T/C [13] of 6.28%, a viability, T/C [14] of 4.96% and a viability, T/C [15] of 4.64%. For the same molecule, the viability, T/C [16] was 3.64%, the viability, T/C [17] was 2.12% and the viability, T/C [18] was 0.13%. For the same molecule, the viability, T/C [19] was 0.53%, the viability, T/C [20] was 0.32% and the viability, T/C [21] was 0.35%. For the same molecule, the viability, T/C [22] was 0.18%, the viability, T/C [23] was 0.21% and the viability, T/C [24] was 0.21%. The viability, T/C [25] was 0.5%, the viability, T/C [26] was 0.4% and the viability, T/C [27] was 0.39%. For the same molecule, the viability, T/C [28] was 0.21%, the viability, T/C [29] was 0.2% and the viability, T/C [30] was 1.32%. The viability, T/C [31] was 0.22%, the viability, T/C [32] was 0.23% and the viability, T/C [33] was 0.27%. It also gave a viability, T/C [34] of 0.22%, a viability, T/C [35] of 0.24% and a viability, T/C [36] of 1.53%.
